Experimental data as given in publication PMC6070903 (Viruses, 2018).
Values after ≈ are worked out from the molar mass of the structure shown.

Key:
in vitro = conditions: African green monkey
HSV-1 strain KOS = test: Anti-HSV-1 plaque reduction assay in Vero cells; type: cell-based, Herpes simplex virus; conditions: for IC50: Human alphaherpesvirus 1, HSV-1, plaque reduction, 72 h, Vero cells; for Selectivity Index CC50/IC50: HSV-1, Vero CC50 / IC50
[1] = test system: HSV-2 (clinical isolates, acyclovir-sensitive); test: Anti-HSV-2 titer reduction assay in Vero cells; type: cell-based, Herpes simplex virus; conditions: for EC50: Human alphaherpesvirus 2, HSV-2, titer reduction, 48 h, Vero cells; for Selectivity Index CC50/EC50: HSV-2, Vero CC50 / EC50
C. albicans ATCC 10231 = test: Broth microdilution MIC; type: cell-based; conditions: Candida albicans, ATCC10231, 48 h, 25 ± 2 °C
B. cereus ATCC 11778 = test: Broth microdilution MIC; type: cell-based; conditions: Bacillus cereus, ATCC11778, 24 h, 35 ± 2 °C
THP-1 cells [2] = test: Pyocyanin-triggered ROS production in THP-1 cells, DCFH-DA; type: cell-based, human; conditions: 5 μM, pyocyanin 100 μM, THP-1 monocytes
P. aeruginosa ATCC 27853 = test: Broth microdilution MIC; type: cell-based; conditions: Pseudomonas aeruginosa, ATCC27853, 24 h, 35 ± 2 °C
E. coli ATCC 25922 = test: Broth microdilution MIC; type: cell-based; conditions: Escherichia coli, ATCC25922, 24 h, 35 ± 2 °C
S. aureus ATCC 29213 = test: Broth microdilution MIC; type: cell-based; conditions: Staphylococcus aureus, ATCC29213, 24 h, 35 ± 2 °C
[3] = test system: Gram-positive bacteria S. aureus and B. cereus; test: Broth microdilution MIC, summary for both Gram-positive strains; type: cell-based; conditions: S. aureus and B. cereus together
[4] = test system: HL-60 (promyelocytic leukemia) cells; design: method as in earlier work; conditions: read-out: IC50 against HL-60 cells; cited from earlier work
THP-1 cells [5] = test: Cell viability of THP-1 cells, WST-1 assay; type: cell-based; conditions: Homo sapiens, WST-1, 24 h, 0.25 to 20 μM, read-out: IC50 for the THP-1 cell line (viability)
NF-κB/AP-1 = NF-κB/AP-1 activity, SEAP reporter in LPS-stimulated THP-1-XBlue-MD2-CD14 cells; type: cell-based, human; conditions: 5 μM, LPS 1 μg/mL, 24 h, vs vehicle
TNF-α = test: LPS-stimulated TNF-α secretion in PMA-differentiated THP-1 macrophages, ELISA; type: cell-based, human; conditions: 5 μM, LPS 1 μg/mL, 24 h
IL-1β = test: LPS-stimulated IL-1β secretion in PMA-differentiated THP-1 macrophages, ELISA; type: cell-based, human; conditions: 5 μM, LPS 1 μg/mL, 24 h

Structure (SMILES)	IC50 (HSV-1 strain KOS)	EC50 [1]	MIC (C. albicans ATCC 10231)	MIC (B. cereus ATCC 11778)	MIC (P. aeruginosa ATCC 27853)	MIC (E. coli ATCC 25922)	MIC (S. aureus ATCC 29213)	MIC range against both Gram-positive strains [3]	IC50 (THP-1 cells [5])	CC50 at 84 h (in vitro)	Effect on production of ROS (THP-1 cells [2])	Selectivity Index CC50/EC50 [1]	Selectivity Index CC50/IC50 (HSV-1 strain KOS)	IC50 [4]	Effect on NF-κB/AP-1 activity (NF-κB/AP-1)	Effect on LPS-stimulated secretion of TNF-α (TNF-α)	Effect on LPS-stimulated secretion of IL-1β (IL-1β)
Nc1nc2c(ncn2COCCO)c(=O)[nH]1 [Acyclovir, acyclovir, reference compound]	1.92 ± 0.23 µg/mL (≈ 8.53 µM)	1.75 ± 0.33 µg/mL (≈ 7.77 µM)	–	–	–	–	–	–	–	> 210 µg/mL	–	–	–	–	–	–	–
C=C1CC[C@H](C(C)(C)O)/C=C/[C@@H](C)CCC1=O [Compound 1, Litseagermacrane]	–	1.25 ± 0.2 µg/mL (≈ 5.29 µM)	> 64 µg/mL	64 µg/mL (≈ 271 µM)	> 64 µg/mL	> 64 µg/mL	> 64 µg/mL	–	–	> 210 µg/mL	no significant antioxidant potential	>168.0	–	–	–	–	–
C=C(C)C1CCC(=C)C2(O)CCC3(C)C(CC(C)C)c4c(O)c(C=O)c(O)c(C=O)c4OC3C12 (centres unmarked) [Compound 4, Eucalyptal A]	–	–	> 128 µg/mL	32 µg/mL (≈ 68.3 µM)	> 128 µg/mL	> 128 µg/mL	> 128 µg/mL	–	1200 nM	–	–	–	–	1700 nM	–	–	–
COc1cc2oc(-c3ccc(O)cc3)cc(=O)c2c(O)c1C [Compound 7, 8-Demethylsideroxylin]	–	–	> 128 µg/mL	128 µg/mL (≈ 429 µM)	> 128 µg/mL	> 128 µg/mL	> 128 µg/mL	–	–	–	–	–	–	–	enhance it	–	–
COc1ccc(-c2cc(=O)c3c(O)c(C)c(OC)cc3o2)cc1 [Compound 9, 8-Demethyleucalyptin]	–	–	> 64 µg/mL	> 64 µg/mL	> 64 µg/mL	> 64 µg/mL	> 64 µg/mL	–	–	–	–	–	–	–	reduce the activation of NF-κB/AP-1	–	–
c1cc2c(cc1[C@H]1OC[C@H]3[C@@H]1CO[C@@H]3c1ccc3c(c1)OCO3)OCO2 [Compound 10, Sesamin]	–	–	> 32 µg/mL	> 32 µg/mL	> 32 µg/mL	> 32 µg/mL	> 32 µg/mL	–	–	–	–	–	–	–	–	–	–
C[C@H]1[C@H](C)CC[C@]2(C(=O)O)CC[C@]3(C)C(=CC[C@@H]4[C@@]5(C)CC[C@H](O)C(C)(C)[C@@H]5CC[C@]43C)[C@H]12 [Compound 11, Ursolic acid]	–	–	> 128 µg/mL	32 µg/mL (≈ 70.1 µM)	> 128 µg/mL	> 128 µg/mL	128 µg/mL (≈ 280 µM)	–	–	–	–	–	–	–	–	–	–
COc1cc(/C=C/C(=O)O[C@H]2CC[C@]3(C)[C@H]4C=C[C@]56OC(=O)[C@@]7(CC[C@@H](C)[C@H](C)[C@H]75)CC[C@@]6(C)[C@]4(C)CC[C@H]3C2(C)C)ccc1O [Compound 12, Tereticornate A]	0.96 ± 0.12 µg/mL (≈ 1.52 µM)	–	> 32 µg/mL	> 32 µg/mL	> 32 µg/mL	> 32 µg/mL	> 32 µg/mL	–	–	> 210 µg/mL	–	–	>218.8	–	statistically significant inhibitory potential, stronger than that of prednisone	Neither compound 8 nor 12 showed any influence on the secretion of TNF-α	attenuates the LPS-stimulated secretion of IL-1β
CN(C)[C@@H]1C(O)=C(C(N)=O)C(=O)[C@@]2(O)C(O)=C3C(=O)c4c(O)cccc4[C@@](C)(O)[C@H]3C[C@@H]12 [tetracycline, reference compound]	–	–	–	0.03 µg/mL (≈ 0.0675 µM)	16 µg/mL (≈ 36 µM)	1 µg/mL (≈ 2.25 µM)	0.125 µg/mL (≈ 0.281 µM)	–	–	–	–	–	–	–	–	–	–

More lines, main results first:

IC50 (HSV-1 strain KOS)	EC50 [1]	MIC (C. albicans ATCC 10231)	MIC (B. cereus ATCC 11778)	MIC (P. aeruginosa ATCC 27853)	MIC (E. coli ATCC 25922)	MIC (S. aureus ATCC 29213)	MIC range against both Gram-positive strains [3]	IC50 (THP-1 cells [5])	Structure (SMILES)	CC50 at 84 h (in vitro)	Effect on production of ROS (THP-1 cells [2])	Selectivity Index CC50/EC50 [1]	Selectivity Index CC50/IC50 (HSV-1 strain KOS)	IC50 [4]	Effect on NF-κB/AP-1 activity (NF-κB/AP-1)	Effect on LPS-stimulated secretion of TNF-α (TNF-α)	Effect on LPS-stimulated secretion of IL-1β (IL-1β)
1.23 ± 0.13 µg/mL (≈ 4.88 µM)	–	> 64 µg/mL	16 µg/mL (≈ 63.4 µM)	> 64 µg/mL	> 64 µg/mL	16 µg/mL (≈ 63.4 µM)	8 to 32 µg/mL	–	Cc1c(O)c(C=O)c(O)c(C(=O)CC(C)C)c1O [Compound 2, Grandinol]	> 210 µg/mL	significantly increased the production of ROS	–	>170.7	–	–	–	–
–	–	> 32 µg/mL	8 µg/mL (≈ 33.6 µM)	> 32 µg/mL	> 32 µg/mL	32 µg/mL (≈ 134 µM)	8 to 32 µg/mL	–	CCC(C)C(=O)c1c(O)cc(OC)c(C)c1O (centres unmarked) [Compound 3, Pulverulentone B]	–	no significant antioxidant potential	–	–	–	–	–	–
–	0.73 ± 0.11 µg/mL (≈ 1.4 µM)	> 128 µg/mL	> 128 µg/mL	> 128 µg/mL	> 128 µg/mL	> 128 µg/mL	–	–	Cc1cc(=O)c2c(O)cc(O[C@@H]3O[C@H](COC(=O)C4=CC[C@H](C(C)(C)O)CC4)[C@@H](O)[C@H](O)[C@H]3O)cc2o1 [Compound 5, Cypellocarpin C]	> 210 µg/mL	–	>287.7	–	–	–	–	–
1.44 ± 0.14 µg/mL (≈ 4.61 µM)	–	> 64 µg/mL	64 µg/mL (≈ 205 µM)	> 64 µg/mL	> 64 µg/mL	> 64 µg/mL	–	–	COc1c(C)c(O)c2c(=O)cc(-c3ccc(O)cc3)oc2c1C [Compound 6, Sideroxylin]	> 210 µg/mL	–	–	>145.8	–	enhance it	–	–
–	–	> 64 µg/mL	> 64 µg/mL	> 64 µg/mL	> 64 µg/mL	> 64 µg/mL	–	–	COc1ccc(-c2cc(=O)c3c(O)c(C)c(OC)c(C)c3o2)cc1 [Compound 8, Eucalyptin]	–	–	–	–	–	–	Neither compound 8 nor 12 showed any influence on the secretion of TNF-α	increased the secretion of the IL-1β
–	–	4 µg/mL (≈ 10.3 µM)	–	–	–	–	–	–	Clc1ccc(C(Cn2ccnc2)OCc2ccsc2Cl)c(Cl)c1 (centres unmarked) [tioconazole, reference compound]	–	–	–	–	–	–	–	–
